Measured values: patent US12157741B2, “Macrocyclic inhibitors of DYRK1A” (DANA-FARBER CANCER INSTITUTE, INC., priority 2018, dated 2024)
Like-named read-outs stand apart in the source and are kept apart here.

Key:
[1] = target: various enzymes (Homo sapiens, UniProt Q16539); settings: p38-alpha; 1 uM
Method: (§1) Ambit profiling from Eurofins (formerly Discoverx) was conducted in accordance with the manufacturer's instructions.

[2] = target: various enzymes (Homo sapiens, UniProt P29597); settings: 1 uM
Method: as §1

[3] = target: T1, various enzymes (Homo sapiens, UniProt Q9NWZ3); settings: IRAK4; 1 uM
T1 sequence (Q9NWZ3 1-460): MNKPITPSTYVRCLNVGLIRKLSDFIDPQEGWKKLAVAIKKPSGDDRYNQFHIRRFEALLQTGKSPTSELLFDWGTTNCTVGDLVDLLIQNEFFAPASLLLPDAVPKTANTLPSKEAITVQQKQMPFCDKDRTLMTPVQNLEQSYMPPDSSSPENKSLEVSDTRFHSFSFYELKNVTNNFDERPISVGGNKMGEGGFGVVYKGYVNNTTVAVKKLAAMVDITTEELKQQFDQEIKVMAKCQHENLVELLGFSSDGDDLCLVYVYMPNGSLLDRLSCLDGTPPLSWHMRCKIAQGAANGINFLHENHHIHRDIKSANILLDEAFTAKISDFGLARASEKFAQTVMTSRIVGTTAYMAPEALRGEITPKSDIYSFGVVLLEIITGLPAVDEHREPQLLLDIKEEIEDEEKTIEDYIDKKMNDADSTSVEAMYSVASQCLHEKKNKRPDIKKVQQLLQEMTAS
Method: as §1

[4] = target: T2, various enzymes (Homo sapiens, UniProt Q6PHR2); settings: ULK3; 1 uM
T2 sequence (Q6PHR2 1-472): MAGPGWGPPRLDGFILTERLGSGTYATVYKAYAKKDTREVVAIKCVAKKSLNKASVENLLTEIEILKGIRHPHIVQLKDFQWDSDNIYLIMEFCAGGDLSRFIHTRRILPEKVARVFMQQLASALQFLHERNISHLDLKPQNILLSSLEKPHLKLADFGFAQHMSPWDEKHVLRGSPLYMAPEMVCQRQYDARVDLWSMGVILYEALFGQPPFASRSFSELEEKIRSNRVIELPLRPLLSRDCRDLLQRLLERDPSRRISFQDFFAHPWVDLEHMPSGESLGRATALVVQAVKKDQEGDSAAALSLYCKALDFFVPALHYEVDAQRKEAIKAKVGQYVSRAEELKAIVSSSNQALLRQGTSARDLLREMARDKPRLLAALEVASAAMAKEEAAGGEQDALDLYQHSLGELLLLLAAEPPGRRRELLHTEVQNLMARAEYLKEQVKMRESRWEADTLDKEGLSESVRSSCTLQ
Method: as §1

[5] = target: various enzymes (Homo sapiens, UniProt Q00526); settings: CDK3; 1 uM
Method: as §1

[6] = target: T3, various enzymes (Homo sapiens, UniProt Q96L34); settings: MARK4; 1 uM
T3 sequence (Q96L34 1-752): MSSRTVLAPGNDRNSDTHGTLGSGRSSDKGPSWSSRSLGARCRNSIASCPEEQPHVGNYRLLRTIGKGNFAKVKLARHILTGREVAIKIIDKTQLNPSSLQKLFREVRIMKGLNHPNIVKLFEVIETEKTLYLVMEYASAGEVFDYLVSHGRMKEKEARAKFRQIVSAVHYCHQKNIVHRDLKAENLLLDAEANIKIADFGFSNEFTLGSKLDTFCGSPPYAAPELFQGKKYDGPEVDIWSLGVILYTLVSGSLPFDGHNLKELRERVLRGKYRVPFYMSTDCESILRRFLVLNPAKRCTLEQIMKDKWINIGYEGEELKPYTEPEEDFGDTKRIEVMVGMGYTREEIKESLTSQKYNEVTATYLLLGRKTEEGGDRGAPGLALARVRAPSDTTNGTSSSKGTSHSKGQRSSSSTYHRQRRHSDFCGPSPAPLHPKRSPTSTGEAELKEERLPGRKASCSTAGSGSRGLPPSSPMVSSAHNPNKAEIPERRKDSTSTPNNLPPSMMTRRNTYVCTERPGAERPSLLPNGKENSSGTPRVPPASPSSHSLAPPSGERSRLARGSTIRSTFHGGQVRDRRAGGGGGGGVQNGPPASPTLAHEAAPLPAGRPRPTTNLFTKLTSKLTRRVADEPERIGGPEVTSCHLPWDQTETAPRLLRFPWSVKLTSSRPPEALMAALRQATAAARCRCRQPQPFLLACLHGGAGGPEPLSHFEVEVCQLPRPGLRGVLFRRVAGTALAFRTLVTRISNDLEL
Method: as §1

[7] = target: various enzymes (Homo sapiens, UniProt Q16584); settings: MLK3; 1 uM
Method: as §1

[8] = target: various enzymes (Homo sapiens, UniProt P53779); settings: JNK3; 1 uM
Sequence of various enzymes (Homo sapiens, UniProt P53779) (P53779 whole entry): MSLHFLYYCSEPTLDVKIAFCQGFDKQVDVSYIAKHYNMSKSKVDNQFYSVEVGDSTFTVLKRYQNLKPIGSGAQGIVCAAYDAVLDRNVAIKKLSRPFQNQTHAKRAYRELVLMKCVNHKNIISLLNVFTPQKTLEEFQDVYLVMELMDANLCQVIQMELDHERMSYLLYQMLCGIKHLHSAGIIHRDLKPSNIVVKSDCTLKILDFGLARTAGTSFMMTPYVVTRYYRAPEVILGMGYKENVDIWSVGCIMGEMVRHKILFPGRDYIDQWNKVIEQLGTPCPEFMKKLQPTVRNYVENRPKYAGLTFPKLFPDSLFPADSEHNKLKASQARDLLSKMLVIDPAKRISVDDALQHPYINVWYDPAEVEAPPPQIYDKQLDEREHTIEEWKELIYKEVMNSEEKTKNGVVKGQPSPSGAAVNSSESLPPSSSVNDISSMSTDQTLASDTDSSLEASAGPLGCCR
Method: as §1

Sequence of various enzymes (Homo sapiens, UniProt P29597) (P29597 whole entry): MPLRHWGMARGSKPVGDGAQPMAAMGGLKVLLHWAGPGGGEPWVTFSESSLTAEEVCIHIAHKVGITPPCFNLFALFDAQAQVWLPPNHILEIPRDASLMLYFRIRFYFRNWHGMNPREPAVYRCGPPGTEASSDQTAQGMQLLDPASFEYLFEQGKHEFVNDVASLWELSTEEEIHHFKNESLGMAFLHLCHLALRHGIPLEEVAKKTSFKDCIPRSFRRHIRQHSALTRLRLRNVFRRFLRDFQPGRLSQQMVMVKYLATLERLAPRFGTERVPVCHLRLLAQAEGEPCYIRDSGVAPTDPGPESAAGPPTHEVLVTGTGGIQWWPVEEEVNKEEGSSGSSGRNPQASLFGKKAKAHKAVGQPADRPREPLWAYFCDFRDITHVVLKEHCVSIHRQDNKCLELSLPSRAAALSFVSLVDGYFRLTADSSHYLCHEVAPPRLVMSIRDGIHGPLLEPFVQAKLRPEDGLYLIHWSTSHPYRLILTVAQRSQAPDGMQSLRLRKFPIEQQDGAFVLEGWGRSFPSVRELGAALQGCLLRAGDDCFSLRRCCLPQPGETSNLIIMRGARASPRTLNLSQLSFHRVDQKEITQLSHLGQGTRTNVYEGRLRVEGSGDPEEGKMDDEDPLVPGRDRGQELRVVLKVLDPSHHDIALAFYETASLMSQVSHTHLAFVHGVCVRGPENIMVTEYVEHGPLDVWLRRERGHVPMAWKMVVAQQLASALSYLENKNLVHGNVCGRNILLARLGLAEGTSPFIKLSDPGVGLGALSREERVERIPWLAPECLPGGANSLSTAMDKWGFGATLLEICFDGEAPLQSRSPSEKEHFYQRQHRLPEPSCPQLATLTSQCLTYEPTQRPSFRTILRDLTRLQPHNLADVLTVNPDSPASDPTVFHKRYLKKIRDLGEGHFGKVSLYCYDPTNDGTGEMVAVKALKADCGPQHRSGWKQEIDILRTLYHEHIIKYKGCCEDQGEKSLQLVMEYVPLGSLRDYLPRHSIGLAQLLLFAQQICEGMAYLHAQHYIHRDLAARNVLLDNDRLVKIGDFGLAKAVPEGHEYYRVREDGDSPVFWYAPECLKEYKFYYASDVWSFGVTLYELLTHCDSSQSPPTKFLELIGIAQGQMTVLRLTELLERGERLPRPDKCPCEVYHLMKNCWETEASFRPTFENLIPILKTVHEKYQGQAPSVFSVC
Sequence of various enzymes (Homo sapiens, UniProt Q16539) (Q16539 whole entry): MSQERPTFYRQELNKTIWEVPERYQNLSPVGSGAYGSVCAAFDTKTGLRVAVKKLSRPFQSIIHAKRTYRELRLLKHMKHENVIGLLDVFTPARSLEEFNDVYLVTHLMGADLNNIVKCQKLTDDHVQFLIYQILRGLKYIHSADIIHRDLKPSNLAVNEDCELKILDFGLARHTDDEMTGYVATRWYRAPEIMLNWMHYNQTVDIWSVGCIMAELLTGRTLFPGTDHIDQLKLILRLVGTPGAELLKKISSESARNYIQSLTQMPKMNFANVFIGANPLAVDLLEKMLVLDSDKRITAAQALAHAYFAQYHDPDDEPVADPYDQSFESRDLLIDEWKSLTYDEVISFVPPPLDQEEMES
Sequence of various enzymes (Homo sapiens, UniProt Q16584) (Q16584 whole entry): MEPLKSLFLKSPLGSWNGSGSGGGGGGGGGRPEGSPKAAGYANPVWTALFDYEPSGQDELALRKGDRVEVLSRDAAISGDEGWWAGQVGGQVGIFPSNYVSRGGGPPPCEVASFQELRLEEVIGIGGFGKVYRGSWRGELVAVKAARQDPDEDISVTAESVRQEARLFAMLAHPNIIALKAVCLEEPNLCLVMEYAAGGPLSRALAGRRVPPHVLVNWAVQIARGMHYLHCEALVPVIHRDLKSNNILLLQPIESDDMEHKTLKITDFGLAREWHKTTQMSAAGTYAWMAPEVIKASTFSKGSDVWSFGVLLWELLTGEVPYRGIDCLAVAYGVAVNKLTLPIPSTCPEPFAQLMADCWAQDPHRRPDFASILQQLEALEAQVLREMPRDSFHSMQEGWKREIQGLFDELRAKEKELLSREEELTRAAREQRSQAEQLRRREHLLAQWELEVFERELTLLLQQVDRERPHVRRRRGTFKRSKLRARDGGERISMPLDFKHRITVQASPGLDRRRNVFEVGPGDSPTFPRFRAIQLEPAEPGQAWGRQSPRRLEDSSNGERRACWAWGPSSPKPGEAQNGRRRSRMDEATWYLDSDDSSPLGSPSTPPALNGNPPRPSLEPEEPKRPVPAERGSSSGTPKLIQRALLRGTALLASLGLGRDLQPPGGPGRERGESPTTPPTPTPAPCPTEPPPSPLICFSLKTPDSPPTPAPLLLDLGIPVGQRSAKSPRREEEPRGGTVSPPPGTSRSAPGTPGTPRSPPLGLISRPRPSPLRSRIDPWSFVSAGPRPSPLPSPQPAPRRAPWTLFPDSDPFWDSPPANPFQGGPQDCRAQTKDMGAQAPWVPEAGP
Sequence of various enzymes (Homo sapiens, UniProt Q00526) (Q00526 whole entry): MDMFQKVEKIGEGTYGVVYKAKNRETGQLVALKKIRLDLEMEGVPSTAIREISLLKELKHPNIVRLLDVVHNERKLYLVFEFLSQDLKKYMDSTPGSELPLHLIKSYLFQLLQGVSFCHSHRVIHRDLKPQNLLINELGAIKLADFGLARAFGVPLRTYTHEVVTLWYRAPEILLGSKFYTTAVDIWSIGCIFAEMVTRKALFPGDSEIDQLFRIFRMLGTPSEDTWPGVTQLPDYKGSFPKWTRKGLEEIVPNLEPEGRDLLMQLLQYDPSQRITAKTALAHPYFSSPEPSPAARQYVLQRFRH

Row | SMILES | Ambit profiling [1] | Ambit profiling ([2]; TYK2(JH1domain-catalytic)) | Ambit profiling ([2]; TYK2(JH2domain-pseudokinase)) | Ambit profiling [3] | Ambit profiling [4] | Ambit profiling [5] | Ambit profiling [6] | Ambit profiling [7] | Ambit profiling [8]
1 | CN1Cc2nn(C)cc2-c2cnc3[nH]cc(c3c2)-c2cnn(c2)CCCC1=O [Compound 41, (Z)-31,5-dimethyl-11H,21H,31H-5-aza-2(3,5)-pyrrolo[2,3-b]pyridina-1(4,1),3(4,3)-dipyrazolacyclononaphan-6-one] | 99 | 2.3 | 100 | 12 | 5.6 | 50 | 27 | 69 | 0.75
2 | CN1Cc2nn(C)c(C#N)c2-c2cnc3[nH]cc(c3c2)-c2cn(nc2C(F)(F)F)CCCC1=O [Compound 48, (Z)-31,5-dimethyl-6-oxo-13-(trifluoromethyl)-11H,21H,31H-5-aza-2(3,5)-pyrrolo[2,3-b]pyridina-1(4,1),3(4,3)-dipyrazolacyclononaphane-35-carbonitrile] | 95 | 84 | 100 | 100 | 97 | 100 | 92 | 80 | 14
